Data as given in patent publication US10626094B2 (La Jolla Institute of Allergy & Immunology, priority 2014, dated 2020).

Biological target: LMPTP-A (Low Molecular Weight Protein Tyrosine Phosphatase-A) enzyme (Homo sapiens (Human), UniProt P24666)
Assay: LMPTP primary screening / LMPTP (OMFP) enzyme inhibition assay, fluorescence intensity
Assay type: biochemical
Conditions: LMPTP-A, OMFP substrate, method of Example 2; read-out: IC50
Method in brief: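 0.625 nM LMPTP-A with 400 μM OMFP substrate in 50 mM Bis-Tris pH 6.0, 1 mM DTT, 0.01% Triton X-100, […]. Compounds at 20 μM final. Incubated 50 min at room temperature in the dark; fluorescence intensity read.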

Chain of LMPTP-A (Low Molecular Weight Protein Tyrosine Phosphatase-A) enzyme (P24666 whole entry): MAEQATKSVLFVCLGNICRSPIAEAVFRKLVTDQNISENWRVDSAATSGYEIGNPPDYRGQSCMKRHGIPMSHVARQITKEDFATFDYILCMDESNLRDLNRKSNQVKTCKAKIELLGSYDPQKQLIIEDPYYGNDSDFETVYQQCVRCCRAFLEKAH

Row | Compound | IC50 [nM]
1 | FC(F)(F)c1cc(-c2cc(Nc3cccc(CN4CCCC4)c3)c3ccccc3n2)cc(C(F)(F)F)c1 [Compound I44, {2-[3,5-bis(trifluoromethyl)phenyl](4-quinolyl)}[3-(pyrrolidinylmethyl)phenyl]amine] | > 5000
2 | CSc1ccc(-c2cc(NCCCN3CCCCC3)c3ccccc3n2)c(C(F)(F)F)c1 [Compound I114] | 801 to 5000
3 | CC(=O)OCc1cccc(-c2cc(NCCCN3CCCCC3)c3ccccc3n2)c1 [Compound I79, 3-{4-[(3-piperidylpropyl)amino]-2-quinolyl}phenyl)methyl acetate] | 801 to 5000
4 | COc1ccc(-c2cc(Nc3cccc(CN4CCNCC4)c3)c3ccccc3n2)cc1 [Compound G59, [2-(4-methoxyphenyl)(4-quinolyl)][3-(piperazinylmethyl)phenyl]amine] | 801 to 5000
5 | CN(C)c1cc(-c2ccc[nH]2)nc2ccccc12 [Compound G23, Dimethyl-[2-(1H-pyrrol-2-yl)-quinolin-4-yl]-amine] | > 5000
6 | COc1ccc(-c2cc(Nc3ccc(OC)nc3)c3ccccc3n2)cc1 [Compound G48, (6-methoxy(3-pyridyl))[2-(4-methoxyphenyl)(4-quinolyl)]amine] | 200 to 800
7 | COc1ccc(-c2cc(Nc3ccc(CC4CCN(S(C)(=O)=O)CC4)cc3)c3ccccc3n2)cc1 [Compound I35, 4-[(4-{[2-(4-methoxyphenyl)(4-quinolyl)]amino}phenyl)methyl]-1-(methylsulfonyl)piperidine] | 801 to 5000
8 | c1c[nH]c(-c2cc(NCCCC3CCCNC3)c3ccccc3n2)c1 (centres unmarked) [Compound I175, (3-piperidylpropyl)(2-pyrrol-2-yl(4-quinolyl))amine] | 801 to 5000
9 | COc1ccc(-c2cc(NCCCN3CCCCC3)c3cc(C(F)(F)F)ccc3n2)cc1 [Compound G28, [2-(4-Methoxy-phenyl)-6-trifluoromethyl-quinolin-4-yl]-(3-piperidin-1-yl-propyl)-amine] | > 5000
10 | CCN(CC)CCCNC(=O)c1ccc(-c2cc(NCCCN3CCCCC3)c3ccccc3n2)cc1 [Compound I190] | 200 to 800
11 | CCOC(=O)CNC(=O)c1ccc(-c2cc(NCCCN3CCCCC3)c3ccccc3n2)cc1 [Compound I65] | 200 to 800
12 | Clc1cccc(Nc2cc(NCCCN3CCCCC3)c3ccccc3n2)c1 [Compound I76] | > 5000
13 | O=C(c1ccc(-c2cc(NCCCN3CCCCC3)c3ccccc3n2)cc1)N1CCNCC1 [Compound I193, piperazinyl 4-{4-[(3-piperidylpropyl)amino](2-quinolyl)}phenyl ketone] | 200 to 800
14 | O=S(=O)(c1ccccc1)n1ccc2cc(-c3cc(NCCCN4CCCCC4)c4ccccc4n3)ccc21 [Compound I260] | 801 to 5000
15 | COc1ccc(-c2cc(NCCCN3CCCCC3)c3cc(OC(F)(F)F)ccc3n2)cc1 [Compound G31, [2-(4-Methoxy-phenyl)-6-trifluoromethoxy-quinolin-4-yl]-(3-piperidin-1-yl-propyl)-amine] | > 5000
16 | O=S(=O)(c1ccc(-c2cc(NCCCN3CCCCC3)c3ccccc3n2)cc1)N1CCSCC1 [Compound I235, 4-[(4-{4-[(3-piperidylpropyl)amino]-2-quinolyl}phenyl)sulfonyl]-1,4-thiazaperhydroine] | 200 to 800
17 | CN1CCCC1CCNc1cc(-c2cc(C(F)(F)F)cc(C(F)(F)F)c2)nc2ccccc12 (centres unmarked) [Compound I46, {2-[3,5-bis(trifluoromethyl)phenyl](4-quinolyl)}[2-(1-methylpyrrolidin-2-yl)ethyl]amine] | > 5000
18 | CCOc1ncccc1-c1cc(NCCCN2CCCCC2)c2ccccc2n1 [Compound I96] | 801 to 5000
19 | CN(C)c1cc(-c2cccs2)nc2ccccc12 [Compound G17, Dimethyl-(2-thiophen-2-yl-quinolin-4-yl)-amine] | > 5000
20 | CN(C)Cc1cccc(Nc2cc(-c3ccc(C(N)=O)cc3)nc3ccccc23)c1 [Compound I4, 4-[4-({3-[(dimethylamino)methyl]phenyl}amino)-2-quinolyl]benzamide] | > 5000
21 | Cc1cc(Cl)ccc1-c1cc(NCCCN2CCCCC2)c2ccccc2n1 [Compound I134] | 801 to 5000
22 | NC(=O)c1ccc(-c2cc(Nc3cccc(CC4CCNCC4)c3)c3ccccc3n2)cc1 [Compound I3, 4-(4-{[3-(4-piperidylmethyl)phenyl]amino}-2-quinolyl)benzamide] | 801 to 5000
23 | O=C(NC1CCCC1)c1ccc(-c2cc(NCCCN3CCCCC3)c3ccccc3n2)cc1 [Compound I249] | 200 to 800
24 | {2-[5-chloro-2-(cyclopropylmethoxy)(3-pyridyl)](4-quinolyl)}(3-piperidylpropyl)amine [Compound I95] | 801 to 5000
25 | COc1ccc(-c2cc(NCc3ccccc3C(F)(F)F)c3ccccc3n2)cc1 [Compound G80, [2-(4-methoxyphenyl)(4-quinolyl)]{[2-(trifluoromethyl)phenyl]methyl}amine] | 801 to 5000
26 | 2-(3-bromo-4-chloro-2-fluorophenyl)(4-quinolyl)](3-piperidylpropyl)amine [Compound I101] | 801 to 5000
27 | CN(C)Cc1cc(CO)cc(Nc2cc(-c3cccc(Cl)c3)nc3ccccc23)c1 [Compound I45, (5-[(dimethylamino)methyl]-3-{[2-(3-chlorophenyl)(4-quinolyl)]amino}phenyl)methan-1-ol] | 801 to 5000

Row | Compound | IC50 [nM]
28 | COc1ccc(-c2cc(Nc3cccc(CC4CCN(S(C)(=O)=O)CC4)c3)c3ccccc3n2)cc1 [Compound I28, 4-[(3-{[2-(4-methoxyphenyl)(4-quinolyl)]amino}phenyl)methyl]-1-(methylsulfonyl)piperidine] | 801 to 5000
29 | CN(C)Cc1ccc(Nc2cc(-c3cc(C(F)(F)F)cc(C(F)(F)F)c3)nc3ccccc23)cc1 [Compound I47, {[4-({2-[3,5-bis(trifluoromethyl)phenyl](4-quinolyl)}amino)phenyl]methyl}dimethylamine] | > 5000
30 | CC(=O)Nc1ccc(-c2cc(NCCCN3CCCCC3)c3ccccc3n2)cc1C(F)(F)F [Compound I77] | 801 to 5000
31 | CC(=O)Nc1cccc(-c2cc(NCCCN3CCCCC3)c3ccccc3n2)c1 [Compound I118] | 801 to 5000
32 | FC(F)(F)COc1ccccc1-c1cc(NCCCN2CCCCC2)c2ccccc2n1 [Compound I131] | 801 to 5000
33 | c1ccc2c(NCCCN3CCCCC3)cc(-c3ccc4c(c3)OCCO4)nc2c1 [Compound I125] | 801 to 5000
34 | COc1ccc(-c2cc(NCCCN3CCCCC3)c3cc(Cl)ccc3n2)cc1 [Compound G27, [6-Chloro-2-(4-methoxy-phenyl)-quinolin-4-yl]-(3-piperidin-1-yl-propyl)-amine] | > 5000
35 | COc1ncccc1-c1cc(NCCCN2CCCCC2)c2ccccc2n1 [Compound I154] | 801 to 5000
36 | O=C(NCC(F)(F)F)c1ccc(-c2cc(NCCCN3CCCCC3)c3ccccc3n2)cc1 [Compound I63] | 801 to 5000
37 | COc1ccc(-c2cc(Nc3cccc(Cc4nn[nH]n4)c3)c3ccccc3n2)cc1 [Compound I27, [2-(4-methoxyphenyl)(4-quinolyl)][3-(2H-1,2,3,4-tetraazol-5-ylmethyl)phenyl]amine] | 801 to 5000
38 | {2-[2,4-bis(trifluoromethyl)phenyl](4-quinolyl)}(3-piperidylpropyl)amine [Compound I168] | 200 to 800
39 | CN(C)c1cccc(Nc2cc(-c3cccc(Cl)c3)nc3ccccc23)c1 [Compound I14, (3-{[2-(3-chlorophenyl)(4-quinolyl)]amino}phenyl)dimethylamine] | 801 to 5000
40 | CN(C)CCc1ccc(Nc2cc(-c3ccc(C(N)=O)cc3)nc3ccccc23)cc1 [Compound I217, 4-[4-({4-[2-(dimethylamino)ethyl]phenyl}amino)-2-quinolyl]benzamide] | > 5000
41 | O=C(c1ccc(-c2cc(NCCCN3CCCCC3)c3ccccc3n2)cc1)N1CCCCC1 [Compound I194, piperidyl 4-{4-[(3-piperidylpropyl)amino](2-quinolyl)}phenyl ketone] | 801 to 5000
42 | CCOC(=O)c1ccc(Nc2cc(-c3ccc(OC)cc3)nc3ccccc23)cc1 [Compound G45, ethyl 4-{[2-(4-methoxyphenyl)-4-quinolyl]amino}benzoate] | > 5000
43 | COc1ccc(-c2cc(Nc3cccc(C(F)(F)F)c3)c3ccccc3n2)cc1 [Compound G37, [2-(4-Methoxy-phenyl)-quinolin-4-yl]-(3-trifluoromethyl-phenyl)-amine] | > 5000
44 | (3-piperidylpropyl)(2-(3-pyridyl)(4-quinolyl))amine [Compound I147] | 801 to 5000
45 | FC(F)(F)c1cc(-c2cc(Nc3cccc(CC4CCN(Cc5ccccc5)CC4)c3)c3ccccc3n2)cc(C(F)(F)F)c1 [Compound I50, {2-[3,5-bis(trifluoromethyl)phenyl](4-quinolyl)}(3-{[1-benzyl(4-piperidyl)]methyl}phenyl)amine] | > 5000
46 | N#CCCNC(=O)c1ccc(-c2cc(NCCCN3CCCCC3)c3ccccc3n2)cc1 [Compound I59] | 200 to 800
47 | O=C(NC1CCCCC1)c1ccc(-c2cc(NCCCN3CCCCC3)c3ccccc3n2)cc1 [Compound I230] | 801 to 5000
48 | Fc1ccc(-c2cc(NCCCN3CCCCC3)c3ccccc3n2)c(C(F)(F)F)c1 [Compound I122] | 801 to 5000
49 | Cn1ccc2cc(-c3cc(NCCCN4CCCCC4)c4ccccc4n3)ccc21 [Compound I109] | 200 to 800
50 | FC(F)(F)c1ccc(C(F)(F)F)c(-c2cc(Nc3cccc(CC4CCNCC4)c3)c3ccccc3n2)c1 [Compound I41, {2-[2,5-bis(trifluoromethyl)phenyl](4-quinolyl)}[3-(4-piperidylmethyl)phenyl]amine] | 801 to 5000
51 | FC(F)(F)c1ccc(-c2cc(NCCCC3CCCNC3)c3ccccc3n2)c(Cl)c1 (centres unmarked) [Compound I120] | 801 to 5000
52 | COc1ccc(-c2cc(NCCCN3CCCCC3)c3c(n2)CCCC3)cc1 [Compound I208] | 801 to 5000
53 | CC(C)NC(=O)c1ccc(-c2cc(NCCCN3CCCCC3)c3ccccc3n2)cc1 [Compound I61, N-(methylethyl)(4-{4-[(3-piperidylpropyl)amino](2-quinolyl)}phenyl)carboxamide] | 801 to 5000
